# Earlier results as cited in patent US20070196901A1, “Kahalalide-producing bacteria” (priority 2003, published 2007).
# pEC50: −log10 of the molar value.
# Experiments:
# [1] = test system: HIV-1; conditions: read-out: HIV-1 EC50; antiviral
# [2] = test system: AIDS-opportunistic infection pathogens; conditions: against AIDS-opportunistic infection pathogens, compared with reference drugs
# [3] = test system: M. tuberculosis
# [4] = test system: prostate cancer
substance,measurement,setting,value
kahalalide F [KF],pEC50,[1],4.85
same,antifungal activity,[2],comparable to the activity of the drugs Amphotericin B and Ketoconazole/Rifampin
same,inhibition of M. tuberculosis,[3],moderately inhibitory
same,efficacy in clinical trials against prostate cancer,[4],effective
